Numbers after ± are expanded uncertainties.

This is an account of results in the NIST ThermoML archive (doi:10.1021/acs.jced.8b00081).

This series in a line: wn = mass fraction of the nth substance listed. Particulars: 88.35 kPa, Liquid, Pycnometric method.

As for `[Cl-].[K+]` [potassium chloride] + O, the mass density (298.15 K, w1 = 0.2672) is 1180 ± 12 kg/m3 and the mass density (313.15 K, w1 = 0.29) came out at 1192 ± 12 kg/m3.

For orientation: mass density means the mass of a sample divided by its volume.
